Results from patent US20100285156A1, “COMPOSITION FOR PREVENTING AND TREATING METABOLIC DISEASES COMPRISING THE EXTRACT OF LYSIMACHIAE FOENUM-GRAECI HERBA” (BRNSCIENCE CO., LTD, priority 2007, published 2010).

Tests used:
[1] = tested on: DIO (Diet Induced-Obesity) mice; assay: Blood metabolic disease marker levels in diet-induced obesity (DIO) mice; type: in vivo, C57BL/6 male mice
Procedure: Seven-week-old C57BL/6 male mice (obtained from Coretec Inc.) were bred in an animal facility where breeding conditions of temperature (20±1° C.), humidity (50±10%), light/dark cycle (12 hours), light intensity (150 to 300 Lux), and ventilation (10 to 20 times/hr) were maintained. Solid feed (obtained from Folas International Inc.) was freely supplied to the mice, and city water was subjected to steam sterilization and then was freely fed to the mice as drinking water. After acclimation for one week, 60% Kcal solid feed (obtained from Research Diet Inc.) was supplied to the mice, and the Lysimachiae Foenum-Graeci Herba extract was orally administered to the mice for 42 days in an amount of 30, 100, and 300 mg/kg/day. Sibutramine was administered to a positive control group in an amount of 10 mg/kg/day, and 0.5% MC (methyl cellulose) was administered to a negative control group in the same amount. The mice to which the substances were administered for six weeks were fasted for one day, and then were killed using CO2 gas. Blood gathered from the mouse abdominal vena cava was put into EDTA tubes and stored in ice, and then plasma obtained by centrifugation at 3000 rpm for 10 minutes was analyzed using a biochemical auto analyzer (AU400, Olympus, Japan). Also, organs extracted from the mice were immediately frozen by putting them into liquid nitrogen, were stored in a low-temperature refrigerator (−70° C.), and were histologically analyzed.
The contents of triglycerides and cholesterol in the extracted liver tissues were also measured, the results of which are given in FIG. 2.

[2] = tested on: ICR male mice given corn oil; assay: Antihyperlipidemic activity, corn oil loaded mice; type: in vivo; conditions: plasma, 10 mg/kg, control drug, corn oil 1 g/kg
Procedure: Five-week-old ICR male mice (obtained from Central Lab. Animal Inc.) were bred in an animal facility where breeding conditions of temperature (20±1° C.), humidity (50±10%), light/dark cycle (12 hours), light intensity (150 to 300 Lux), and ventilation (10 to 20 times/hr) were maintained. Solid feed for laboratory animals (obtained from Cargill Agri Purina Inc.) was freely supplied to the mice, and city water was subjected to steam sterilization and then was freely fed to the mice as drinking water. After acclimation for one week, the […] Herba extract was orally administered to eight mice per group in a concentration of 100 mg/kg, and a saline was orally administered to the control group instead of the extract.

[3] = plasma, high-fat diet, 10 mg/kg/day, six weeks
[4] = positive control group, summary of Table 1

| SMILES | ALT (Alanine aminotransferase) [1, 3] [IU/L] | AST (Aspartate aminotransferase) [1, 3] [IU/L] | CHO (Cholesterol) [1, 3] [mg/dL] | GLU (Glucose) [1, 3] [mg/dL] | TG (Triglyceride) [1, 3] [mg/dL] | ALT and glucose levels [1, 4] | AST and cholesterol levels [1, 4] | triglyceride level [1, 4] | CHO (Cholesterol) [2] [mg/dL] | TG (Triglyceride) [2] [mg/dL] |
| --- | --- | --- | --- | --- | --- | --- | --- | --- | --- | --- |
| CC(C)CC(N(C)C)C1(c2ccc(Cl)cc2)CCC1 (stereo not shown) [Sibutramine] | 64 ± 15.1 | 172.33 ± 58.4 | 187.33 ± 15 | 182.66 ± 27.3 | 91.33 ± 17.0 | meaningfully reduced | not changed | rather increased | – | – |
| CCCCCCCCCCC[C@@H](C[C@@H]1OC(=O)[C@H]1CCCCCC)OC(=O)[C@H](CC(C)C)NC=O [Xenical] | – | – | – | – | – | – | – | – | 148.83 ± 8.26 | 311.17 ± 45.56 |
